Data published in patent publication US20230346816A1, “COMPOUNDS AND METHODS FOR TREATING VIRAL INFECTION” (priority 2020, published 2023).

Key:
[1] = tested on: IL-6; assay: Gene expression analysis (quantitative PCR) of IL-6 in primary human chondrocytes; format: cell-based; settings: IL-1β, 1 or 10 mM, 24 hrs, FIG. 3
Description: (§1) Normal cartilage were obtained from autopsy services at the hospital of University of Virginia, approved by the Institutional Review Board. Articular cartilage were harvested from the femoral condyles and the tibial plateaus. Cartilage shavings were harvested at the operation room and placed in tissue culture medium (DMEM, 10% FBS, penicillin, streptomycin), and shipped to the laboratory at 4° C. Chondrocytes were isolated by incubation of the cartilage fragments with 0.01% collagenase NB4 (Fisher Scientific, Catalog No. 50-204-1257) for 4 hrs at 37° C. Cells were maintained in continuous monolayer cultures in DMEM containing 10% FBS. Experiments were performed with cells less than 3 passages. When necessary, trypsin were used for cell passage.
(§2) Cells, as prepared in the MATERIALS section, were seeded in a 24-well plate (3×10^5/well) and incubated with culture medium overnight. Cells were then treated with Compound 2 at various concentrations in DMEM containing 2% FBS (1 or 10 mM) for 24 hrs. […] Synthesis of cDNA from total RNA and the quantitative PCR were carried out by using the iscript™ cDNA synthesis kit and the iQ™ SYBR Green Supermix kit (Bio-Rad Laboratories, Hercules, CA), respectively. […] The threshold cycle (CT) value were calculated from amplification plots. Data were analyzed using the 2-ΔΔCT method with 18s rRNA serving as the reference. […]

[2] = tested on: COX-2; assay: Gene expression analysis (quantitative PCR) of COX-2 in primary human chondrocytes; format: cell-based; settings: IL-1β, 1 or 10 mM, 24 hrs, FIG. 4
Description: as §1, §2

[3] = tested on: COVID-19; assay: Prospective observational cohort study of NAG in hospitalized COVID-19 patients vs retrospective control arm; format: in vivo
[4] = NAG (n = 48) vs control (n = 100), univariate
[5] = multiple logistic regression, NAG (ref = control)

In the case of `CC(=O)N[C@H]1[C@H](O)O[C@H](C)C[C@@H]1O` [Cpd 2, 2-(acetylamino)-2,4,6-trideoxy-β-D-glucopyranose], the “Expression of pro-inflammatory gene IL-6” value [1] is reported as “dose-dependent inhibition” and the “Expression of pro-inflammatory gene COX-2” value [2] is reported as “dose-dependent inhibition”.
For `CC(=O)N[C@@H]1[C@@H](O)[C@H](O)[C@@H](CO)O[C@H]1O` [NAG, N-((2R,3R,4R,5S,6R)-2,4,5-trihydroxy-6-(hydroxymethyl)-tetrahydro-2H-pyran-3-yl)acetamide], the “Intubation, %” value ([3]; 700 mg NAG every 12 hours plus standard of care, NAG group n = 48) was “(16.7%)”, the “ICU admission, odds ratio” value [3, 4] was 0.53 and the “Mortality, odds ratio” value [3, 4] was 0.37. The “Poor clinical outcome, odds ratio” value [3, 4] was 0.30, the “Intubation, odds ratio” value ([3]; NAG (n = 48) vs control (n = 100), univariate, Fisher's exact test) was 0.60 and the “Hospital LOS, Hodges-Lehmann difference” value ([3]; NAG (n = 48) vs control (n = 100), univariate, Mann-Whitney U test) was 0.0. The “ICU admission, %” value ([3]; NAG group n = 48) was “(22.9%)”, the “Poor clinical outcome (combined death/hospice initiation), %” value ([3]; NAG group n = 48) was “(12.5%)” and the “Hospital LOS, median” value ([3]; NAG group n = 48, median (IQR) [range]) was 7. The “Hospice initiation, %” value ([3]; excludes patients that died, NAG n = 42) was “(0%)”, the “Hospice initiation, odds ratio” value ([3]; excludes patients that died, NAG n = 42 vs control n = 72, univariate) was 0.00 and the “ICU admission, odds ratio (multivariate)” value [3, 5] was 0.32. For the same compound, the “Poor clinical outcome rate, odds ratio (multivariate)” value [3, 5] was 0.30, the “Hospital length of stay, β-coefficient” value ([3]; multivariate linear regression, NAG (ref = control)) was −4.27 and the “ICU LOS, median” value ([3]; only patients admitted to the ICU, NAG n = 10) was 2.5. For the same compound, the “ICU LOS, Hodges-Lehmann difference” value ([3]; only patients admitted to the ICU, NAG n = 10 vs control n = 36, univariate) was 4.0, the “Duration of oxygen, Hodges-Lehmann difference” value ([3]; only patients that required oxygen support, NAG n = 46 vs control n = 86, univariate) was 0.0 days and the “Difference between control and NAG groups for intubation rates, hospital LOS, ICU admission, ICU LOS, duration of oxygen use, or hospice initiation” value ([3]; univariate analysis) was “no significant differences”.
